Experimental data: US10882860B2, “Treatment of osteoarthritis” (Samumed, LLC, priority 2015, dated 2021)
Marks after values point to notes of the source that are not given here.

Columns and labels:
[1] = test system: Wnt genes TCF7, c-Myc, Axin-2, Ascl 2, and SP5; assay: In vitro Wnt pathway inhibition, qRT-PCR in human MSCs; type: cell-based; details: 30 nM; 48 hours; fold change vs DMSO; FIG. 15
Description: Human mesenchymal stem cells (MSCs) were plated in 6-well plates in chondrogenic induction medium (Lonza; DMEM, dexamethasone, ascorbate, insulin-transferrin-selenium [ITS supplement], gentamycin-amphotericin [GA-1000], sodium pyruvate, proline and L-glutamine) and treated with the compound of Formula (I) (30 nM) in DMSO or TGF-β3 (20 μg/mL) as a positive control. Cells were incubated at 37° C., 5% CO2 for 48 hours. Cells were pelleted and washed, and total RNA was isolated and purified using RNeasy Plus Mini Kit (Qiagen). cDNA was synthesized from 1 μg of total RNA using QuantiTect Reverse Transcription kit (Qiagen). qRT-PCR was performed with QuantiTect SYBR Green PCR Kit (Qiagen) and gene-specific primers, using CFX384 thermal cycler (Biorad). Transcripts were quantitated by comparative Ct method and normalized to endogenous controls, β-actin and GAPDH. Fold changes were normalized to DMSO treated cells.

[2] = test system: moderate-to-severe symptomatic knee OA subjects; assay: Phase 1 clinical study: safety and adverse events; type: in vivo, human; details: for AE(s) Reported - All / AE(s) Reported - Target knee, Arthralgia / AE(s) Reported - Target knee, Injection site bruising / AE(s) Reported - Target knee, Injection site pain / AE(s) Reported - Target knee, Joint injury / AE(s) Reported - Target knee, Joint stiffiiess / AE(s) Reported - Target knee, Joint swelling / AE(s) Reported - Target knee, Meniscus injury / DLT(s) Reported / SAE(s) Reported: single IA injection
Description: A Phase 1 study was conducted to evaluate the safety and tolerability of the compound of Formula (I) (Form 1) administered by intra-articular injection into a target knee joint of moderate-to-severe symptomatic OA subjects.
The study was a first-in-human, multicenter, 24-week, placebo-controlled, single-dose, dose-escalation safety study of a Wnt pathway inhibitor in subjects suffering from moderate to severe symptomatic knee OA. The sample size was 20 subjects (randomized 4:1, 16 active: 4 placebo) per dosing cohort. Inclusion criteria included: Age, 50-75 years; Western Ontario and McMaster Universities Arthritis Index (WOMAC) Total score, 36-72 (out of 96); Kellgren-Lawrence grade, 2 or 3; and a willingness to omit pain medication for 24 hours prior to pain assessments. Exclusion criteria included: BMI>40; and treatment with IA steroids within 2 months or HA derivatives within 6 months prior to injection. A full list of the inclusion and exclusion criteria for this study can be found on clinicaltrials.gov (NCT02095548).
The dosing sequence included suspension compositions of either 0.03 mg, 0.07 mg, or 0.23 mg of the compound of Formula (I) (Form 1) per 2 mL injection in a vehicle containing 0.5% carboxymethylcellulose sodium and 0.05% polysorbate 80 in pH 7.4 phosphate buffered saline. The placebo contained only the diluent of 0.5% carboxymethylcellulose sodium and 0.05% polysorbate 80 in pH 7.4 phosphate buffered saline. The subjects were given a single, intra-articular injection in the target knee on Treatment Day 1 and participated in a follow-up period of 24 weeks.
Safety, pharmacokinetics (PK), biomarker, and efficacy data were collected at baseline and during the 24-week follow-up period. Safety data included adverse events (AEs), concomitant medications, clinical laboratory sampling, medical history, vital signs, ECGs, hip bone density (DXA) analysis, qCT of the target knee, and evaluation of bone edema via MM. For PK data, samples were collected 0, 4, and 24 hours post dose, and at Weeks 4 and 12. Biomarker data included data for procollagen type 1 N-propeptide (P1NP), beta C-terminal telopeptide of type 1 collagen (βCTX), and cartilage oligomeric matrix protein (COMP). Efficacy data included measurements of WOMAC Total score, WOMAC Function and Pain subscores, pain VAS, Physician Global Assessment of Disease Activity, MM, and radiographs. Efficacy assessments were used to determine the percentage of OMERACT-OARSI “strict” responders. Exploratory analyses of efficacy outcomes were conducted using a baseline-adjusted repeated measures analysis of covariance (ANCOVA) in the Intention-to-Treat (ITT) population. The sponsor was unblinded after Week 12 for each cohort; site investigators remained blinded. All AEs reported in this study were […]. Investigator opinion regarding whether AEs were related to the compound of Formula (I) was also collected for informational purposes.

CC(C)CC(=O)Nc1cncc(-c2ccc3[nH]nc(-c4nc5c(-c6cccc(F)c6)cncc5[nH]4)c3c2)c1 [compound of Formula (I)]
expression of Wnt genes TCF7, c-Myc, Axin-2, Ascl 2, and SP5 [1]: downregulation | Subjects Who Reported AE(s) [N(%)] ([2]; 0.03 mg cohort): 9 (53%) N(%) | Subjects Who Reported No AE(s) [N(%)] ([2]; 0.03 mg cohort): 8 (47%) N(%) | AE(s) Reported - All ([2]; 0.03 mg cohort): 15 | AE(s) Reported - Target knee, Arthralgia ([2]; 0.03 mg cohort): 1 | AE(s) Reported - Target knee, Injection site bruising ([2]; 0.03 mg cohort): 0 | AE(s) Reported - Target knee, Injection site pain ([2]; 0.03 mg cohort): 0 | AE(s) Reported - Target knee, Joint injury ([2]; 0.03 mg cohort): 1 | AE(s) Reported - Target knee, Joint stiffiiess ([2]; 0.03 mg cohort): 0 | AE(s) Reported - Target knee, Joint swelling ([2]; 0.03 mg cohort): 0 | AE(s) Reported - Target knee, Meniscus injury ([2]; 0.03 mg cohort): 0 | DLT(s) Reported ([2]; 0.03 mg cohort): 0 | SAE(s) Reported ([2]; 0.03 mg cohort): 0 | Subjects Who Reported AE(s) [N(%)] ([2]; 0.07 mg cohort): 6 (37%) N(%) | Subjects Who Reported No AE(s) [N(%)] ([2]; 0.07 mg cohort): 10 (63%) N(%) | AE(s) Reported - All ([2]; 0.07 mg cohort): 11 | AE(s) Reported - Target knee, Arthralgia ([2]; 0.07 mg cohort): 1 | AE(s) Reported - Target knee, Injection site bruising ([2]; 0.07 mg cohort): 0 | AE(s) Reported - Target knee, Injection site pain ([2]; 0.07 mg cohort): 2 | AE(s) Reported - Target knee, Joint injury ([2]; 0.07 mg cohort): 0 | AE(s) Reported - Target knee, Joint stiffiiess ([2]; 0.07 mg cohort): 0 | AE(s) Reported - Target knee, Joint swelling ([2]; 0.07 mg cohort): 1 | AE(s) Reported - Target knee, Meniscus injury ([2]; 0.07 mg cohort): 0 | DLT(s) Reported ([2]; 0.07 mg cohort, increased target knee pain and paroxysmal tachycardia): 2* | SAE(s) Reported ([2]; 0.07 mg cohort, paroxysmal tachycardia): 1* | Subjects Who Reported AE(s) [N(%)] ([2]; 0.23 mg cohort): 7 (44%) N(%) | Subjects Who Reported No AE(s) [N(%)] ([2]; 0.23 mg cohort): 9 (56%) N(%) | AE(s) Reported - All ([2]; 0.23 mg cohort): 25 | AE(s) Reported - Target knee, Arthralgia ([2]; 0.23 mg cohort): 1 | AE(s) Reported - Target knee, Injection site bruising ([2]; 0.23 mg cohort): 1 | AE(s) Reported - Target knee, Injection site pain ([2]; 0.23 mg cohort): 1 | AE(s) Reported - Target knee, Joint injury ([2]; 0.23 mg cohort): 0 | AE(s) Reported - Target knee, Joint stiffiiess ([2]; 0.23 mg cohort): 1 | AE(s) Reported - Target knee, Joint swelling ([2]; 0.23 mg cohort): 1 | AE(s) Reported - Target knee, Meniscus injury ([2]; 0.23 mg cohort): 1 | DLT(s) Reported ([2]; 0.23 mg cohort): 0 | SAE(s) Reported ([2]; 0.23 mg cohort): 0 | AEs considered related to study medication by the reporting investigator ([2]; 16 of 77 AEs): 22% | exposed subjects who reported no AEs ([2]; 27 of 49 exposed subjects): 55% | overall safety and tolerability ([2]; single IA injection of suspension formulated from Form 1, interim data): safe, well-tolerated
